In brackets after ≈: the same amount, converted by molar mass.
Key:
[1] = system: P. aeruginosa ATCC 27853; assay: Broth microdilution MIC in CAMHB; format: cell-based; details: Pseudomonas aeruginosa, ATCC27853; MHB; read-out: Minimum Inhibitory Concentration, P. aeruginosa ATCC 27853
Outline: (§1)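 Lowest compound concentration with no visible growth after 16-20 h at 37 °C defines MIC. Plates of 2-fold serial dilutions in cation-adjusted Mueller Hinton broth received 2-8×10^5 CFU/mL of exponentially grown cells, per CLSI methods; panel spans reference, hyper-permeable and efflux-pump-deleted strains.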

[2] = system: K. pneumoniae SI-117 producing VIM-1; assay: Broth microdilution MIC in CAMHB; format: cell-based; details: Klebsiella pneumoniae, read-out: Minimum Inhibitory Concentration, K. pneumoniae SI-117
Outline: as §1

[3] = system: K. pneumoniae 848844 producing SHV-11 and KPC-2; assay: Broth microdilution MIC in CAMHB; format: cell-based; details: Klebsiella pneumoniae, read-out: Minimum Inhibitory Concentration, K. pneumoniae 848844
Outline: as §1

[4] = system: E. coli ATCC 25922; assay: Broth microdilution MIC in CAMHB; format: cell-based; details: Escherichia coli, ATCC25922; E. coli ATCC 25922; MHB; read-out: Minimum Inhibitory Concentration, E. coli 25922
Outline: as §1

[5] = system: P. aeruginosa ATCC 35151; assay: Broth microdilution MIC in CAMHB; format: cell-based; details: Pseudomonas aeruginosa, ATCC35151; MHB; hyper-permeable strain; read-out: Minimum Inhibitory Concentration, P. aeruginosa ATCC 35151
Outline: as §1

[6] = system: E. coli AG100; assay: Broth microdilution MIC in CAMHB; format: cell-based; details: Escherichia coli; E. coli AG100 (wild-type parent); MHB; read-out: Minimum Inhibitory Concentration, E. coli AG100
Outline: as §1

[7] = system: E. coli AG100A; assay: Broth microdilution MIC in CAMHB; format: cell-based; details: Escherichia coli, read-out: Minimum Inhibitory Concentration, E. coli AG100A
Outline: as §1

[8] = system: E. coli D22; assay: Broth microdilution MIC in CAMHB; format: cell-based; details: Escherichia coli; E. coli D22 (hyper-permeable); MHB; read-out: Minimum Inhibitory Concentration, E. coli D22
Outline: as §1

[9] = target: T1, E. coli K12 PBP3 (Escherichia coli, UniProt P0AD68); assay: biochemical; format: binding
T1 construct: made in house
Outline: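 A. baumannii PBP2 (2.5 μM) and PBP3 (0.2 μM) were run in 25 mM Tris pH 8.0 buffer with Tween 20; E. coli PBP3 (1.5 μM) and N. gonorrhoeae PBP2 ([…]) in 50 mM Hepes pH 8.0 buffer.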

T1 sequence (P0AD68 1-577): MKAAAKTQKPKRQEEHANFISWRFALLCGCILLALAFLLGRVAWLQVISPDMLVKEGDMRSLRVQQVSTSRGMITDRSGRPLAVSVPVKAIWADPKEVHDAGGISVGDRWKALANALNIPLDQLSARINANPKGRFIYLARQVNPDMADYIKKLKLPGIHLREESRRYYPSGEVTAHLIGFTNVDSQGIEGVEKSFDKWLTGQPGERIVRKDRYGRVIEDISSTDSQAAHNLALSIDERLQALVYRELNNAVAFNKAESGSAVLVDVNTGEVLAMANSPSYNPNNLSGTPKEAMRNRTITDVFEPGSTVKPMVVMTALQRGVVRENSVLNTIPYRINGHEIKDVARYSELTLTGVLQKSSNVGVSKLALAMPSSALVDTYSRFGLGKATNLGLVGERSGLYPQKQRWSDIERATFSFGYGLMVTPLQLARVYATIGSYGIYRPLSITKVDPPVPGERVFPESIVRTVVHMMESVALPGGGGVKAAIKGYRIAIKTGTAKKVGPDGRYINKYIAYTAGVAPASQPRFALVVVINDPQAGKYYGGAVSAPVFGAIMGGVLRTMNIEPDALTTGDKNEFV

Row | SMILES | MIC [1] | MIC [2] | MIC [3] | MIC [4] | MIC [5] | MIC [6] | MIC [7] | MIC [8] | EC50 [9]
1 | CCN1CCN(C(=O)N[C@@H](C(=O)N[C@H]2Cc3cccc(C(=O)O)c3OB2O)c2c(O)cc(O)cc2F)C(=O)C1=O (single isomer, unassigned) [Example 182] | > 128 µg/mL | 32 to 64 µg/mL (≈ 57.3 to 115 µM) | 32 to 64 µg/mL (≈ 57.3 to 115 µM) | 8 to 16 µg/mL (≈ 14.3 to 28.7 µM) | 2 to 4 µg/mL (≈ 3.58 to 7.16 µM) | 8 to 16 µg/mL (≈ 14.3 to 28.7 µM) | 0.5 to 1 µg/mL (≈ 0.896 to 1.79 µM) | 0.5 to 1 µg/mL (≈ 0.896 to 1.79 µM) | < 30 µM
2 | NCCN1CCN(C(=O)N[C@@H](C(=O)N[C@H]2Cc3cccc(C(=O)O)c3OB2O)c2ccc(O)c(Cl)c2F)C(=O)C1=O (single isomer, unassigned) [Example 186] | 32 to 64 µg/mL (≈ 54.1 to 108 µM) | 32 to 64 µg/mL (≈ 54.1 to 108 µM) | 32 to 64 µg/mL (≈ 54.1 to 108 µM) | 8 to 16 µg/mL (≈ 13.5 to 27 µM) | < 0.25 µg/mL | 8 to 16 µg/mL (≈ 13.5 to 27 µM) | 2 to 4 µg/mL (≈ 3.38 to 6.76 µM) | 2 to 4 µg/mL (≈ 3.38 to 6.76 µM) | < 30 µM
3 | NCCN1CCN(C(=O)N[C@H](C(=O)N[C@H]2Cc3cccc(C(=O)O)c3OB2O)c2ccc(O)c(Cl)c2F)C(=O)C1=O (single isomer, unassigned) [Example 187] | > 128 µg/mL | > 128 µg/mL | > 128 µg/mL | > 128 µg/mL | 2 to 4 µg/mL (≈ 3.38 to 6.76 µM) | > 128 µg/mL | 8 to 16 µg/mL (≈ 13.5 to 27 µM) | 32 to 64 µg/mL (≈ 54.1 to 108 µM) | 30 to 500 µM
4 | CS(=O)(=O)N1CCN(C(=O)N[C@@H](C(=O)N[C@H]2Cc3ccc(F)c(C(=O)O)c3OB2O)c2cc(F)c(O)c(O)c2Cl)C1=O (single isomer, unassigned) [Example 189] | 2 to 4 µg/mL (≈ 3.16 to 6.32 µM) | 8 to 16 µg/mL (≈ 12.6 to 25.3 µM) | 2 to 4 µg/mL (≈ 3.16 to 6.32 µM) | 2 to 4 µg/mL (≈ 3.16 to 6.32 µM) | 0.5 to 1 µg/mL (≈ 0.79 to 1.58 µM) | 8 to 16 µg/mL (≈ 12.6 to 25.3 µM) | 2 to 4 µg/mL (≈ 3.16 to 6.32 µM) | 0.5 to 1 µg/mL (≈ 0.79 to 1.58 µM) | < 30 µM
5 | CCN1CCN(C(=O)N[C@@H](C(=O)N[C@H]2Cc3ccc(F)c(C(=O)O)c3OB2O)c2c(Cl)cc(O)c(O)c2F)C(=O)C1=O (single isomer, unassigned) [Example 207] | – | – | – | – | – | – | – | – | < 30 µM
6 | O=C(NCCCN1CCN(C(=O)NC(C(=O)N[C@H]2Cc3cccc(C(=O)O)c3OB2O)c2ncc(O)cc2F)C(=O)C1=O)c1ccc(O)c(O)c1Cl (stereo partly drawn) [Example 1, (3R)-3-(2-(4-(3-(2-chloro-3,4-dihydroxybenzamido)propyl)-2,3-dioxopiperazine-1-carboxamido)-2-(3-fluoro-5-hydroxypyridin-2-yl)acetamido)-2-hydroxy-3,4-dihydro-2H-benzo[e][1,2]oxaborinine-8-carboxylic acid] | – | 32 to 64 µg/mL (≈ 43.1 to 86.2 µM) | 32 to 64 µg/mL (≈ 43.1 to 86.2 µM) | > 128 µg/mL | – | 32 to 64 µg/mL (≈ 43.1 to 86.2 µM) | 8 to 16 µg/mL (≈ 10.8 to 21.5 µM) | 8 to 16 µg/mL (≈ 10.8 to 21.5 µM) | < 30 µM
7 | C[C@H]1CN(CCNC(=O)c2ccc(O)c(O)c2Cl)C(=O)C(=O)N1C(=O)NC(C(=O)N[C@H]1Cc2cccc(C(=O)O)c2OB1O)c1ncc(O)cc1F (stereo partly drawn) [Example 2, (3R)-3-(2-((S)-4-(2-(2-chloro-3,4-dihydroxybenzamido)ethyl)-6-methyl-2,3-dioxopiperazine-1-carboxamido)-2-(3-fluoro-5-hydroxypyridin-2-yl)acetamido)-2-hydroxy-3,4-dihydro-2H-benzo[e][1,2]oxaborinine-8-carboxylic acid] | – | 8 to 16 µg/mL (≈ 10.8 to 21.5 µM) | 8 to 16 µg/mL (≈ 10.8 to 21.5 µM) | 8 to 16 µg/mL (≈ 10.8 to 21.5 µM) | – | 2 to 4 µg/mL (≈ 2.69 to 5.38 µM) | 0.5 to 1 µg/mL (≈ 0.673 to 1.35 µM) | 2 to 4 µg/mL (≈ 2.69 to 5.38 µM) | < 30 µM
8 | O=C(NCCCN1CCN(C(=O)NC(C(=O)N[C@H]2Cc3ccc(F)c(C(=O)O)c3OB2O)c2ncc(O)cc2F)C(=O)C1=O)c1ccc(O)c(O)c1Cl (stereo partly drawn) [Example 3, (3R)-3-(2-(4-(3-(2-chloro-3,4-dihydroxybenzamido)propyl)-2,3-dioxopiperazine-1-carboxamido)-2-(3-fluoro-5-hydroxypyridin-2-yl)acetamido)-7-fluoro-2-hydroxy-3,4-dihydro-2H-benzo[e][1,2]oxaborinine-8-carboxylic acid] | – | > 128 µg/mL | 32 to 64 µg/mL (≈ 42.1 to 84.1 µM) | > 128 µg/mL | – | 32 to 64 µg/mL (≈ 42.1 to 84.1 µM) | 32 to 64 µg/mL (≈ 42.1 to 84.1 µM) | 32 to 64 µg/mL (≈ 42.1 to 84.1 µM) | < 30 µM
9 | Nc1nc(C(NC(=O)N2CCN(CCNC(=O)c3ccc(O)c(O)c3Cl)C(=O)C2=O)C(=O)N[C@H]2Cc3ccc(F)c(C(=O)O)c3OB2O)c(F)s1 (stereo partly drawn) [Example 4, (3R)-3-(2-(2-amino-5-fluorothiazol-4-yl)-2-(4-(2-(2-chloro-3,4-dihydroxybenzamido)ethyl)-2,3-dioxopiperazine-1-carboxamido)acetamido)-7-fluoro-2-hydroxy-3,4-dihydro-2H-benzo[e][1,2]oxaborinine-8-carboxylic acid] | – | – | – | – | – | – | – | – | < 30 µM
10 | O=C(NCCN1CCN(C(=O)NC(C(=O)N[C@H]2Cc3ccc(F)c(C(=O)O)c3OB2O)c2ncc(O)cc2F)C(=O)C1=O)c1c(F)cc(O)c(O)c1Cl (stereo partly drawn) [Example 5, (3R)-3-(2-(4-(2-(2-chloro-6-fluoro-3,4-dihydroxybenzamido)ethyl)-2,3-dioxopiperazine-1-carboxamido)-2-(3-fluoro-5-hydroxypyridin-2-yl)acetamido)-7-fluoro-2-hydroxy-3,4-dihydro-2H-benzo[e][1,2]oxaborinine-8-carboxylic acid] | – | – | – | – | – | – | – | – | < 30 µM
11 | Nc1nc(/C(=N/OC[C@H](NC(=O)c2ccc(O)c(O)c2Cl)C(=O)O)C(=O)N[C@H]2Cc3cccc(C(=O)O)c3OB2O)cs1 [Example 6, (R)-3-((Z)-2-(2-aminothiazol-4-yl)-2-(((S)-2-carboxy-2-(2-chloro-3,4-dihydroxybenzamido)ethoxy)imino)acetamido)-2-hydroxy-3,4-dihydro-2H-benzo[e][1,2]oxaborinine-8-carboxylic acid] | – | – | – | – | – | – | – | – | 30 to 500 µM
12 | CCN1CCN(C(=O)NC(C(=O)N[C@H]2Cc3ccc(F)c(C(=O)O)c3OB2O)c2ncc(C(=O)O)cc2F)C(=O)C1=O (stereo partly drawn) [Example 33, 6-(2-(((R)-8-carboxy-7-fluoro-2-hydroxy-3,4-dihydro-2H-benzo[e][1,2]oxaborinin-3-yl)amino)-1-(4-ethyl-2,3-dioxopiperazine-1-carboxamido)-2-oxoethyl)-5-fluoronicotinic acid] | > 128 µg/mL | > 128 µg/mL | > 128 µg/mL | > 128 µg/mL | 0.5 to 1 µg/mL (≈ 0.849 to 1.7 µM) | > 128 µg/mL | > 128 µg/mL | 2 to 4 µg/mL (≈ 3.39 to 6.79 µM) | –
13 | NCCCN1CCN(C(=O)N[C@@H](C(=O)N[C@H]2Cc3cc(Cl)c(F)c(C(=O)O)c3OB2O)c2c(F)cc(O)c(O)c2Cl)C(=O)C1=O [Example 190, (R)-3-((R)-2-(4-(3-aminopropyl)-2,3-dioxopiperazine-1-carboxamido)-2-(2-chloro-6-fluoro-3,4-dihydroxyphenyl)acetamido)-6-chloro-7-fluoro-2-hydroxy-3,4-dihydro-2H-benzo[e][1,2]oxaborinine-8-carboxylic acid] | – | – | – | – | – | – | – | – | < 30 µM
14 | CCN1CCN(C(=O)N[C@@H](C(=O)N[C@H]2Cc3cc(Cl)c(F)c(C(=O)O)c3OB2O)c2c(F)cc(O)c(O)c2Cl)C(=O)C1=O [Example 191, (R)-6-chloro-3-((R)-2-(2-chloro-6-fluoro-3,4-dihydroxyphenyl)-2-(4-ethyl-2,3-dioxopiperazine-1-carboxamido)acetamido)-7-fluoro-2-hydroxy-3,4-dihydro-2H-benzo[e][1,2]oxaborinine-8-carboxylic acid] | – | – | – | – | – | – | – | – | < 30 µM
15 | CS(=O)(=O)N1CCN(C(=O)NC(C(=O)N[C@H]2Cc3ccc(F)c(C(=O)O)c3OB2O)c2c(Cl)cc(O)c(O)c2F)C1=O (stereo partly drawn) [Example 208, (3R)-3-(2-(6-chloro-2-fluoro-3,4-dihydroxyphenyl)-2-(3-(methylsulfonyl)-2-oxoimidazolidine-1-carboxamido)acetamido)-7-fluoro-2-hydroxy-3,4-dihydro-2H-benzo[e][1,2]oxaborinine-8-carboxylic acid] | – | – | – | – | – | – | – | – | < 30 µM
16 | CCN1CCN(C(=O)N[C@H](C(=O)N[C@H]2Cc3ccc(F)c(C(=O)O)c3OB2O)c2ccc(O)c(O)c2)C(=O)C1=O [Example 210, (R)-3-((S)-2-(3,4-dihydroxyphenyl)-2-(4-ethyl-2,3-dioxopiperazine-1-carboxamido)acetamido)-7-fluoro-2-hydroxy-3,4-dihydro-2H-benzo[e][1,2]oxaborinine-8-carboxylic acid] | – | – | – | – | – | – | – | – | > 500 µM
17 | CCN1CCN(C(=O)N[C@@H](C(=O)N[C@H]2Cc3ccc(F)c(C(=O)O)c3OB2O)c2ccc(O)c(O)c2)C(=O)C1=O [Example 211, (R)-3-((R)-2-(3,4-dihydroxyphenyl)-2-(4-ethyl-2,3-dioxopiperazine-1-carboxamido)acetamido)-7-fluoro-2-hydroxy-3,4-dihydro-2H-benzo[e][1,2]oxaborinine-8-carboxylic acid] | – | – | – | – | – | – | – | – | < 30 µM

Source: patent US20230114728A1 (Venatorx Pharmaceuticals, Inc., priority 2019, published 2023)
